Patent publication US6825317B2, “Cyclic tetrapeptide derivatives and pharmaceutical uses thereof” (Sumitomo Pharmaceuticals Company, Limited, priority 1999, dated 2004)
pIC50: −log10 of the molar value. Each block holds one compound with its values, some of them ahead of it. Non-standard residues stand in square brackets, D forms with d. Residues, ends and D or L forms follow the SMILES beside them. ξ: configuration not given here. *: point of attachment. Asu = N[C@@H](CCCCCC(=O)O)C(=O)O; Cha = N[C@@H](CC1CCCCC1)C(=O)O; Ile(3ξ) = CCC(C)[C@H](N)C(=O)O; dCha = N[C@H](CC1CCCCC1)C(=O)O; Aic = NC1(C(=O)O)Cc2ccccc2C1; Ac8c = NC1(C(=O)O)CCCCCCC1; Ac7c = NC1(C(=O)O)CCCCCC1; Pip = O=C(O)[C@@H]1CCCCN1; dPip = O=C(O)[C@H]1CCCCN1; Ac6c = NC1(C(=O)O)CCCCC1; Ac5c = NC1(C(=O)O)CCCC1; Aib = CC(C)(N)C(=O)O; NHOH = ON*

Key:
[1] = system: histone deacetylase partially purified from B16/BL6 cells; test: Inhibitory activity against histone deacetylase enzyme; type: biochemical, mouse; conditions: crude enzyme from B16/BL6 cells, [3H]acetylated histone H4 peptide substrate, 37 for 3 hours; read-out: 50% inhibitory concentration
Protocol: The preparation of histone deacetylase was performed essentially according to the method of Yoshida et al. (J. Biol. Chem., 265, 17174-17179, 1990). The enzyme to be used was partially purified from B16/BL6 cells. The cells were suspended in HDA buffer (15 mM potassium phosphate, 5% glycerol, 0.2 mM EDTA, 1 mM 2-mercaptoethanol, pH 7.5), homogenized and centrifuged (2500× g, 10 min) to collect the nuclei, which were then homogenized in the same buffer containing 1 M (NH4)2SO4. After ultrasonic disruption and centrifugation, the concentration of (NH4)2SO4 in the collected supernatant was increased to 3.5 M to precipitate histone deacetylase. This precipitate was re-dissolved in HDA buffer, subjected to gel filtration to replace the solvent by HDA buffer, and used as a crude histone deacetylase enzyme solution.
As a substrate, a synthetic substrate peptide, [^3H]acetylated histone H4 peptide was used. This [^3H]acetylated histone H4 peptide was obtained by synthesizing the N-terminal peptide of histone H4; […] (SEQ ID NO: 1: the C-terminal being cysteine) and then radioactively acetylating with ^3H-acetic anhydride.
An assay was performed by incubating the synthetic substrate solution and the enzyme solution at 37 for 3 hours in the presence of a compound to be tested (reaction volume, 100 μl). The reaction was stopped by adding 25 μl of 1 M HCl and 0.2 M acetic acid, and [^3H]acetate cleaved by the enzyme reaction was extracted with ethyl acetate for radioactivity measurement. For a control group, the same procedure was repeated without addition of any test compound to the reaction system. Each test compound was evaluated for a concentration required to cause 50% inhibition of the histone deacetylase enzyme activity in the control group (50% inhibitory concentration).

[2] = system: MHC class-I molecule expression on B16/BL6 cells; test: MHC class-I molecule expression-promoting activity; type: cell-based, mouse; conditions: concentration giving twice-promoted MHC class-I expression relative to untreated control, 72 hours culture with compound
Protocol: The cyclic tetrapeptide derivatives of the present invention were investigated for their MHC class-I molecule expression-promoting actions in the following test.
The cancer cells used were mouse melanoma, B16/BL6 cells, provided by the National Cancer Institute, U.S.A. Said cells were cultured in MEM media supplemented with 10% FBS at 37° C., 5% CO2 in an humidified incubator.
A compound to be tested was preliminarily dissolved in dimethylsulfoxide (DMSO) and adjusted to a concentration of 100 mM or 10 mM (stock solution). […] Trichostatin A was used as a positive control compound for MHC class-I molecule expression-promoting action due to histone deacetylase enzyme-inhibiting activity. DMSO used as a solvent for the stock solution of a test compound would inevitably be introduced into the medium in the test; however, it had been separately confirmed not to affect the test results in amounts within the range used in the test.
Said B16/BL6 cells were inoculated on a 96-well microplate at a cell density of 5000 cells per well, each well containing 200 μAl of said medium. After culturing for 24 hours, 10 μl of a sample containing a given amount of the stock solution of a test compound which had been diluted in the medium was added and cultured for additional 72 hours. Thereafter, each well was washed once with PBS (phosphate buffered saline) and floating cells and the medium were removed. Then, the well was treated with 0.1% glutaraldehyde solution for 3 minutes to fix the cells.
The amount of MHC class-I molecule expressed on the surface of the fixed cells was measured as follows. Anti-H-2K^bD^bD^d antibody, which is an antibody against mouse MHC class-I molecule (commercially available from Meiji Milk Co., Ltd), was used as a primary antibody, biotinylated anti-mouse IgG+M (commercially available from Chemicon) was used as a secondary antibody, and streptavidin-galactosidase conjugate (commercially available from BRL) was reacted as a labeling enzyme. The amount of the thus labeled enzyme-galactosidase was measured in a microplate reader by recording the fluorescent intensity (excitation: 365 nm, fluorescence: 450 nm) resulting from the enzyme reaction product using 4-methylumbelliferyl-D-galactoside (commercially available from Nacalai Tesque) as a substrate. A fluorescence intensity measured for another well to which no test compound was added and which was treated in a similar manner without adding said primary antibody was used as a background level. The value obtained by subtracting said background level from the actually measured value (an apparent value including the background level) was defined as a true measurement reflecting the amount of expressed MHC class-I molecule.
A group without the addition of any test compound was used as a control group and the measurement of MHC class-I molecule expressed in said group was used as a standard value. The amount of MHC class-I molecule expressed at an addition concentration of each test compound was shown as a relative amount based on said standard value set to one (1). The strength of each test compound activity was compared at a concentration which provides twice-promoted expression (C×2).

SMILES: O=C(CCCCC[C@@H]1NC(=O)[C@H]2CCCN2C(=O)[C@H](Cc2ccccc2)NC(=O)C2(CCc3ccccc32)NC1=O)NO (single isomer, unassigned) [CHAP82, cyclo(-L-Asu(NHOH)-1Ain(f)-L-Phe-D-Pro-)]
pIC50 [1]: 8.95 | Twice promoting concentration Cx2 [2]: 2.69 nM

SMILES: CC1(C)NC(=O)[C@H](CCCCCC(=O)NO)NC(=O)[C@H]2CCCN2C(=O)[C@H](Cc2ccccc2)NC1=O [CHAP15, cyclo(-L-Asu(NHOH)-Aib-L-Phe-D-Pro-), reference compound] (cyclo([Aib]F[dP][Asu](NHOH)))
pIC50 [1]: 8.29 | Twice promoting concentration Cx2 [2]: 33.2 nM

SMILES: O=C(CCCCC[C@@H]1NC(=O)[C@H]2CCCN2C(=O)[C@H](Cc2ccccc2)NC(=O)C2(CCCC2)NC1=O)NO [CHAP54, cyclo(-L-Asu(NHOH)-Acc5-L-Phe-D-Pro-)] (cyclo([Ac5c]F[dP][Asu](NHOH)))
pIC50 [1]: 8.52 | Twice promoting concentration Cx2 [2]: 5.67 nM

SMILES: O=C(CCCCC[C@@H]1NC(=O)[C@H]2CCCN2C(=O)[C@H](Cc2ccccc2)NC(=O)C2(CCCCC2)NC1=O)NO [CHAP55, cyclo(-L-Asu(N-HOH)-Acc6-L-Phe-D-Pro-)] (cyclo([Ac6c]F[dP][Asu](NHOH)))
pIC50 [1]: 8.66 | Twice promoting concentration Cx2 [2]: 5.38 nM

SMILES: O=C(CCCCC[C@@H]1NC(=O)[C@H]2CCCN2C(=O)[C@H](Cc2ccccc2)NC(=O)C2(CCCCCC2)NC1=O)NO [CHAP71, cyclo(-L-Asu(NHOH)-Acc7-L-Phe-D-Pro-)] (cyclo([Asu](NHOH)[Ac7c]F[dP]))
pIC50 [1]: 8.67 | Twice promoting concentration Cx2 [2]: 2.76 nM

SMILES: O=C(CCCCC[C@@H]1NC(=O)[C@H]2CCCN2C(=O)[C@H](Cc2ccccc2)NC(=O)C2(CCCCCCC2)NC1=O)NO [CHAP76, cyclo(-L-Asu(NHOH)-Acc8-L-Phe-D-Pro-)] (cyclo([Asu](NHOH)[Ac8c]F[dP]))
pIC50 [1]: 8.40 | Twice promoting concentration Cx2 [2]: 1.88 nM

SMILES: O=C(CCCCC[C@@H]1NC(=O)[C@@H]2CCCCN2C(=O)[C@H](CC2CCCCC2)NC(=O)[C@@H](CC2CCCCC2)NC1=O)NO [CHAP78, cyclo(-L-Asu(NHOH)-D-Cha-L-Cha-L-Pip-)] (cyclo([Asu](NHOH)[dCha][Cha][Pip]))
pIC50 [1]: 8.41 | Twice promoting concentration Cx2 [2]: 2.35 nM

SMILES: O=C(CCCCC[C@@H]1NC(=O)[C@H]2CCCCN2C(=O)[C@H](CC2CCCCC2)NC(=O)[C@@H](CC2CCCCC2)NC1=O)NO [CHAP79, cyclo(-L-Asu(NHOH)-D-Cha-L-Cha-D-Pip-)] (cyclo([Asu](NHOH)[dCha][Cha][dPip]))
pIC50 [1]: 8.41 | Twice promoting concentration Cx2 [2]: 2.79 nM

SMILES: O=C(CCCCC[C@@H]1NC(=O)[C@H]2CCCN2C(=O)[C@H](Cc2ccccc2)NC(=O)C2(Cc3ccccc3C2)NC1=O)NO [CHAP81, cyclo(-L-Asu(NHOH)-2Ain-L-Phe-D-Pro-)] (cyclo([Aic]F[dP][Asu](NHOH)))
pIC50 [1]: 9.01 | Twice promoting concentration Cx2 [2]: 1.29 nM

The next lines start with results.

pIC50 [1]: 8.71
SMILES: O=C(CCCCC[C@@H]1NC(=O)[C@H]2CCCN2C(=O)[C@H](Cc2ccccc2)NC(=O)C2(CCc3ccccc32)NC1=O)NO (single isomer, unassigned) [CHAP83, cyclo(-L-Asu(NHOH)-1Ain(s)-L-Phe-D-Pro-)]
Twice promoting concentration Cx2 [2]: 2.29 nM

pIC50 [1]: 8.65
SMILES: CC(C)C[C@@H]1NC(=O)[C@@H](CC2CCCCC2)NC(=O)[C@H](CCCCCC(=O)NO)NC(=O)[C@@H]2CCCCN2C1=O [CHAP84, cyclo(-L-Asu(NHOH)-D-Cha-L-Leu-L-Pip-)] (cyclo([Asu](NHOH)[dCha]L[Pip]))
Twice promoting concentration Cx2 [2]: 5.65 nM

pIC50 [1]: 8.71
SMILES: CC(C)C[C@@H]1NC(=O)[C@@H](CC2CCCCC2)NC(=O)[C@H](CCCCCC(=O)NO)NC(=O)[C@H]2CCCCN2C1=O [CHAP85, cyclo(-L-Asu(NHOH)-D-Cha-L-Leu-D-Pip-)] (cyclo([Asu](NHOH)[dCha]L[dPip]))
Twice promoting concentration Cx2 [2]: 2.26 nM

pIC50 [1]: 8.50
SMILES: CC[C@H](C)[C@@H]1NC(=O)[C@@H](CC2CCCCC2)NC(=O)[C@H](CCCCCC(=O)NO)NC(=O)[C@H]2CCCCN2C1=O [CHAP86, cyclo(-L-Asu(NHOH)-D-Cha-L-Ile-D-Pip-)] (cyclo([Asu](NHOH)[dCha]I[dPip]))
Twice promoting concentration Cx2 [2]: 3.29 nM

pIC50 [1]: 8.70
SMILES: CCC(C)[C@@H]1NC(=O)[C@@H](CC2CCCCC2)NC(=O)[C@H](CCCCCC(=O)NO)NC(=O)[C@@H]2CCCCN2C1=O (stereo partly drawn) [CHAP87, cyclo(-L-Asu(NHOH)-D-Cha-L-Ile-L-Pip-)] (cyclo([Asu](NHOH)[dCha][Ile(3ξ)][Pip]))
Twice promoting concentration Cx2 [2]: 5.39 nM

pIC50 [1]: 8.56
SMILES: O=C(CCCCC[C@@H]1NC(=O)[C@H]2CCCCN2C(=O)[C@H](Cc2ccccc2)NC(=O)C2(CCCCCCC2)NC1=O)NO [CHAP90, cyclo(-L-Asu(NHOH)-Acc8-L-Phe-D-Pip-)] (cyclo([Asu](NHOH)[Ac8c]F[dPip]))
Twice promoting concentration Cx2 [2]: 3.96 nM

pIC50 [1]: 8.92
SMILES: O=C(CCCCC[C@@H]1NC(=O)[C@H]2CCCCN2C(=O)[C@H](Cc2ccccc2)NC(=O)C2(Cc3ccccc3C2)NC1=O)NO [CHAP91, cyclo(-L-Asu(NHOH)-2Ain-L-Phe-D-Pip-)] (cyclo([Aic]F[dPip][Asu](NHOH)))
Twice promoting concentration Cx2 [2]: 2.48 nM
